Like-named read-outs stand apart in the source and are kept apart here.
Experiments:
human GLP-1R [1] = molecular target: human GLP-1R (Homo sapiens (Human), UniProt P43220, L260F); experiment: CHO GLP-1R Clone C6—Assay 2: HTRF cAMP cell-based functional agonist assay (low GLP-1R density); details: for EC50: CHO GLP-1R Clone C6, cAMP HTRF, geometric mean; for Emax: CHO GLP-1R Clone C6, relative to saturating concentration of full agonist GLP-1 (1 μM), arithmetic mean, read-out: Assay 2 Emax (%)
human GLP-1R [2] = molecular target: human GLP-1R (Homo sapiens, UniProt P43220, G168S); experiment: CHO GLP-1R Clone H6—Assay 1: HTRF cAMP cell-based functional agonist assay (high GLP-1R density); details: for EC50: CHO GLP-1R Clone H6, cAMP HTRF, geometric mean; for Emax: read-out: Assay 1 Emax (%), CHO GLP-1R Clone H6, relative to saturating concentration of full agonist GLP-1 (1 μM), arithmetic mean
human GLP-1R (Homo sapiens, UniProt P43220, G168S), sequence (P43220 24-463 G168S limits assumed): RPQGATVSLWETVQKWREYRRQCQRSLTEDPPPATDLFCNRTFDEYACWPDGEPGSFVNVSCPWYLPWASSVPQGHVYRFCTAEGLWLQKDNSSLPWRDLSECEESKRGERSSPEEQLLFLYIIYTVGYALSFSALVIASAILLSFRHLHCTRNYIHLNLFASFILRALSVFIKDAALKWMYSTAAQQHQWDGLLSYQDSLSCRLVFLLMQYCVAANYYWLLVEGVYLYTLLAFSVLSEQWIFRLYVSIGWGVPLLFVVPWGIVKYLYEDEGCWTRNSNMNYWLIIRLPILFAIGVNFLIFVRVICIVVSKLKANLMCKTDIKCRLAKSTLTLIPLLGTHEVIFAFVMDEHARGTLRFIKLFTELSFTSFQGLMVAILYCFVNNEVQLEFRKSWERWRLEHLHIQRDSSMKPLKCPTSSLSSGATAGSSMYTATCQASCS
Experimental: GLP-1R-mediated agonist activity was determined with a cell-based functional assay utilizing an HTRF (Homogeneous Time-Resolved Fluorescence) cAMP detection kit (cAMP HI Range Assay Kit; CisBio cat #62AM6PEJ) that measures cAMP levels in the cell. The method is a competitive immunoassay between native cAMP produced by the cells and exogenous cAMP labeled with the dye d2. The tracer binding is visualized by a mAb anti-cAMP labeled with Cryptate. The specific signal (i.e. energy transfer) is inversely proportional to the concentration of cAMP in either standard or experimental sample.
The human GLP-1R coding sequence (NCBI Reference Sequence NP_002053.3, including naturally-occurring variant Gly168Ser) was subcloned into pcDNA3 (Invitrogen) and a cell line stably expressing the receptor was isolated (designated Clone H6).
Cells were removed from cryopreservation, re-suspended in 40 mL of Dulbecco's Phosphate Buffered Saline (DPBS-Lonza Cat #17-512Q) and centrifuged at 800×g for 5 min at 22° C. The cell pellet was then re-suspended in 10 mL of growth medium [DMEM/F12 1:1 Mixture with HEPES, L-Gln, 500 mL (DMEM/F12 Lonza Cat #12-719F), 10% heat inactivated fetal bovine serum (Gibco Cat #16140-071), 5 mL of 100× Pen-Strep (Gibco Cat #15140-122), 5 mL of 100× L-Glutamine (Gibco Cat #25030-081) and 500 μg/mL Geneticin (G418) (Invitrogen #10131035)]. A 1 mL sample of the cell suspension in growth media was counted on a Becton Dickinson ViCell to determine cell viability and cell count per mL. The remaining cell suspension was then adjusted with growth media to deliver 2000 viable cells per well using a Matrix Combi Multidrop reagent dispenser, and the cells were dispensed into a white 384 well tissue culture treated assay plate (Corning 3570). The assay plate was then incubated for 48 hours at 37° C. in a humidified environment in 5% carbon dioxide.
Varying concentrations of each compound to be tested (in DMSO) were diluted in assay buffer (HBSS with Calcium/Magnesium (Lonza/BioWhittaker cat #10-527F)/0.1% BSA (Sigma Aldrich cat #A7409-1L)/20 mM HEPES (Lonza/BioWhiftaker cat #17-737E) containing 100 μM 3-isobutyl-1-methylxanthin (IBMX; Sigma cat #15879). The final DMSO concentration is 1%.
After 48 hours, the growth media was removed from the assay plate wells, and the cells were treated with 20 μL of the serially diluted compound in assay buffer for 30 minutes at 37° C. in a humidified environment in 5% carbon dioxide. Following the 30 minute incubation, 10 μL of labeled d2 cAMP and 10 μL of anti-cAMP antibody (both diluted 1:20 in cell lysis buffer; as described in the manufacturer's assay protocol) were added to each well of the assay plate. The plates were then incubated at room temperature and after 60 minutes, changes in the HTRF signal were read with an Envision 2104 multi-label plate reader using excitation of 330 nm and emissions of 615 and 665 nm. Raw data were converted to nM cAMP by interpolation from a cAMP standard curve (as described in the manufacturer's assay protocol) and the percent effect was determined relative to a saturating concentration of the full agonist GLP-17-36 (1 μM) included on each plate. EC50 determinations were made from agonist dose-response curves analyzed with a curve fitting program using a 4-parameter logistic dose response equation.

human GLP-1R (Homo sapiens (Human), UniProt P43220, L260F), sequence (P43220 24-463 L260F): as the sequence (P43220 24-463 G168S limits assumed) above, with S145G, L237F counted along it

Row | EC50 (human GLP-1R [1]) [nM] | Emax (human GLP-1R [1]) [%] | EC50 (human GLP-1R [2]; read-out: Assay 1 EC50) [nM] | Emax (human GLP-1R [2]) [%] | EC50 (human GLP-1R [2]; Assay 1 EC50 (nM)) [nM] | Structure (SMILES)
1 | 3.4 | 100 | 0.39 | 84 | – | CCn1cncc1Cn1c(CN2CCC(c3cccc(OCc4ccc(C#N)cc4F)n3)CC2)nc2ccc(C(=O)O)cc21 [Example 10A-66, 2-[(4-{6-[(4-cyano-2-fluorobenzyl)oxy]pyridin-2-yl}piperidin-1-yl)methyl]-1-[(1-ethyl-1H-imidazol-5-yl)methyl]-1H-benzimidazole-6-carboxylic acid]
2 | 29 | 74 | 2.7 | 73 | – | O=C(O)c1ccc2nc(CN3CCC(c4cccc(OCc5ccc(Cl)cc5F)n4)CC3)n(Cc3ncco3)c2c1 [Example 10A-42, 2-[(4-{6-[(4-chloro-2-fluorobenzyl)oxy]pyridin-2-yl}piperidin-1-yl)methyl]-1-(1,3-oxazol-2-ylmethyl)-1H-benzimidazole-6-carboxylic acid]
3 | 5600 | 86 | – | 88 | 260 | CO[C@H]1CCC[C@H]1Cn1c(CN2CCC(c3cccc(OCc4ccc(Cl)cc4F)n3)CC2)nc2ccc(C(=O)O)cc21 (racemic) [Example 1A-29, rac-2-[(4-{6-[(4-chloro-2-fluorobenzyl)oxy]pyridin-2-yl}piperidin-1-yl)methyl]-1-{[(1S,2S)-2-methoxycyclopentyl]methyl}-1H-benzimidazole-6-carboxylic acid]
4 | 450 | 89 | 28 | 80 | – | O=C(O)c1ccc2nc(CN3CCC(c4cccc(OCc5ccc(Cl)cc5F)n4)CC3)n(Cc3cc[nH]n3)c2c1 [Example 11A-24, 2-[(4-{6-[(4-chloro-2-fluorobenzyl)oxy]pyridin-2-yl}piperidin-1-yl)methyl]-1-(1H-pyrazol-3-ylmethyl)-1H-benzimidazole-6-carboxylic acid]
5 | 760 | 91 | 38 | 76 | – | C[C@H]1CN(c2cccc(OCc3ccc(C#N)cc3F)n2)CCN1Cc1nc2ccc(C(=O)O)cc2n1Cc1cnnn1C [Example 10A-23]
6 | 32 | 79 | 2 | 82 | – | O=C(O)c1ccc2nc(CN3CCC(c4cccc(OCc5ccc(Cl)cc5F)n4)CC3)n(Cc3ccno3)c2c1 [Example 10A-64, 2-[(4-{6-[(4-chloro-2-fluorobenzyl)oxy]pyridin-2-yl}piperidin-1-yl)methyl]-1-(1,2-oxazol-5-ylmethyl)-1H-benzimidazole-6-carboxylic acid]
7 | 27 | 87 | 1.3 | 72 | – | C[C@H]1CN(c2cccc(OCc3ccc(C#N)cc3F)n2)CCN1Cc1nc2ccc(C(=O)O)cc2n1Cc1ncco1 [Example 10A-15, 2-{[(2S)-4-{6-[(4-cyano-2-fluorobenzyl)oxy]pyridin-2-yl}-2-methylpiperazin-1-yl]methyl}-1-(1,3-oxazol-2-ylmethyl)-1H-benzimidazole-6-carboxylic acid]
8 | 1800 | 85 | – | 80 | 70 | COCCn1c(CN2CC[C@@H](c3cccc(OCc4ccc(Cl)cc4F)n3)[C@H](C)C2)nc2ccc(C(=O)O)cc21 (racemic) [Example 1A-26, rac-2-{[(3S,4R)-4-{6-[(4-chloro-2-fluorobenzyl)oxy]pyridin-2-yl}-3-methylpiperidin-1-yl]methyl}-1-(2-methoxyethyl)-1H-benzimidazole-6-carboxylic acid]
9 | 88 | 82 | 8.6 | 78 | – | O=C(O)c1ccc2nc(CN3CCC(c4cccc(OCc5ccc(Cl)cc5F)n4)CC3)n(C[C@@H]3CCCO3)c2c1 [Example 10A-73, 2-[(4-{6-[(4-chloro-2-fluorobenzyl)oxy]pyridin-2-yl}piperidin-1-yl)methyl]-1-[(2S)-tetrahydrofuran-2-ylmethyl]-1H-benzimidazole-6-carboxylic acid]
10 | 13 | 91 | 0.95 | 95 | – | CCn1cncc1Cn1c(CN2CCC(c3cccc(OCc4ccc(C#N)cc4F)n3)CC2)nc2ccc(C(=O)O)nc21 [Example 10A-75]
11 | 5300 | 80 | 150 | 68 | – | O=C(O)c1ccc2nc(CN3CCC(c4cccc(OCc5ccc(Cl)cc5F)n4)CC3)n(CCC(F)(F)F)c2c1 [Example 11A-73, 2-[(4-{6-[(4-chloro-2-fluorobenzyl)oxy]pyridin-2-yl}piperidin-1-yl)methyl]-1-(3,3,3-trifluoropropyl)-1H-benzimidazole-6-carboxylic acid]
12 | 220 | 93 | 8.1 | 74 | – | C[C@H]1CN(c2cccc(OCc3ccc(C#N)cc3F)n2)CCN1Cc1nc2ccc(C(=O)O)cc2n1Cc1cocn1 [Example 10A-14]
13 | 150 | 92 | 36 | 84 | – | Cn1c(CN2CCC(c3cccc(OCc4ccc(Cl)cc4F)n3)CC2)nc2ncc(C(=O)O)cc21 [Example 2A-04, 2-[(4-{6-[(4-chloro-2-fluorobenzyl)oxy]pyridin-2-yl}piperidin-1-yl)methyl]-1-methyl-1H-imidazo[4,5-b]pyridine-6-carboxylic acid]
14 | 1400 | 94 | 96 | 86 | – | Cn1ncnc1Cn1c(CN2CCC(c3cccc(OCc4ccc(Cl)cc4F)n3)CC2)nc2ccc(C(=O)O)cc21 [Example 11A-33, 2-[(4-{6-[(4-chloro-2-fluorobenzyl)oxy]pyridin-2-yl}piperidin-1-yl)methyl]-1-[(1-methyl-1H-1,2,4-triazol-5yl)methyl]-1H-benzimidazole-6-carboxylic acid]
15 | 21 | 84 | 5.3 | 76 | – | O=C(O)c1ccc2nc(CN3CCC(c4cccc(OCc5ccc(Cl)cc5F)n4)CC3)n(Cc3ccon3)c2c1 [Example 11A-69, 2-[(4-{6-[(4-chloro-2-fluorobenzyl)oxy]pyridin-2-yl}piperidin-1-yl)methyl]-1-(1,2-oxazol-3-ylmethyl)-1H-benzimidazole-6-carboxylic acid]
16 | 2100 | 100 | – | 81 | 54 | COCCn1c(CN2CCN(c3cccc(OCc4ccc(Cl)cc4F)n3)C[C@H]2C)nc2ccc(C(=O)O)cc21 [Example 12A-11, 2-{[(2R)-4-{6-[(4-chloro-2-fluorobenzyl)oxy]pyridin-2-yl}-2-methylpiperazin-1-yl]methyl}-1-(2-methoxyethyl)-1H-benzimidazole-6-carboxylic acid]

Row | Structure (SMILES) | EC50 (human GLP-1R [1]) [nM] | Emax (human GLP-1R [1]) [%] | EC50 (human GLP-1R [2]; read-out: Assay 1 EC50) [nM] | Emax (human GLP-1R [2]) [%] | EC50 (human GLP-1R [2]; Assay 1 EC50 (nM)) [nM]
17 | C[C@H]1CN(c2cccc(OCc3ccc(C#N)cc3)n2)CCN1Cc1nc2ccc(C(=O)O)cc2n1CC1CCCO1 (single isomer, unassigned; diastereomer 2) [Example 14A-08] | 380 | – | 19 | – | –
